Entries after “also recorded” stand apart in the source; their conditions may differ. Blank lines part the entries; values can stand above or below the compound they belong to.
Legend:
Format in all cases: binding
Galectin-1 = molecular target: T1, Galectin-1 (Homo sapiens, UniProt P09382); test: FAC affinity test on galectin-immobilized column; settings: for V − V0 Value: pyridyl-aminated carbohydrate, galectin-1 immobilized 0.8 mg/ml, less than 5 μl = below interaction detection limit
T1 construct: made in house
Protocol: (§1) Various galectin molecules-immobilized columns were prepared by the method described by Nakamura S, Yagi F, Totani K, Ito γ and Hirabayashi J in FEBS J., 272, 2784-2799 (2005), using NHS Sepharose (manufactured by Amersham Bioscience) as the carrier for immobilizing galectin molecules and in accordance with the instructions attached thereto (put in parentheses is immobilization concentration, mg galectin/ml carrier).
(§2) Each galectin molecule was immobilized onto the carrier at the following concentration; galectin-1 (0.8 mg/ml), galectin-3 (0.5 mg/ml), galectin-8N (3.6 mg/ml), galectin-8C (4.0 mg/ml), galectin-9N (3.6 mg/ml), galectin-9C (3.0 mg/ml). The carrier on which each galectin was immobilized was charged into a stainless steel miniature column (2 mm in inner diameter, 10 mm in length; manufactured by Shimadzu Corp.).
(§3) A high performance liquid chromatography (HPLC) system was equipped with a galectin molecule-immobilized column, and the test was carried out by the method described in Nakamura S, Yagi F, Totani K, Ito γ and Hirabayashi J in FEBS J., 272, 2784-2799 (2005).
(§4) As the negative control sample, pyridyl-aminated N-acetylglucosamine (PA-GlcNAc, manufactured by Takara Bio, pyridyl-aminated glycosaminoglycan-oligosaccharide sample control) or pyridyl-aminated pullulan (prepared by carrying out pyridylamination of standard pullulan manufactured by Shodex, pyridyl-aminated glycosaminoglycan polysaccharide sample control) was used, and a V−V0 value was calculated from their eluate volume (V0 value) measured by fluorescence detection and the eluate volume (V value) of the sample, namely pyridyl-aminated glycosaminoglycan carbohydrate, and this was used as the index of interaction strength (Protein, Nucleic Acid and Enzyme, 48(8), 1206-1212 (2003)).
(§5) V−V0 values of pyridyl-aminated glycosaminoglycans (HA, CH, DN, NAH, CSA, CSB, CSC, CSD, CSE, KS-I and KS-II) were calculated based on PA-GlcNAc, and V−V0 values of pyridyl-aminated glycosaminoglycan-oligosaccharides (G2K1, G1L1, G4L4, L2L2, L2L4, L4L4, SL2L4 and CH3 to CH12) based on pyridyl-aminated pullulan, respectively.
(§6) In this connection, when the calculated value of the V−V0 value was less than 5 μl, it was regarded as less than the interaction detection limit in this example.

Galectin-3 = molecular target: T2, Galectin-3 (Homo sapiens, UniProt P17931); test: FAC affinity test on galectin-immobilized column; settings: for V − V0 Value: pyridyl-aminated carbohydrate, galectin-3 immobilized 0.5 mg/ml, less than 5 μl = below interaction detection limit; for binding to galectin-3 (in words): text statement on the FAC results
T2 construct: made in house
Protocol: as §1, §2, §3, §4, §5, §6

Galectin-8C = molecular target: T3, Galectin-8C (Homo sapiens, UniProt O00214); test: FAC affinity test on galectin-immobilized column; settings: pyridyl-aminated carbohydrate; galectin-8C immobilized 4.0 mg/ml; less than 5 μl = below interaction detection limit
T3 construct: N and C respectively represent N-terminal side carbohydrate-recognition domain and C-terminal side carbohydrate-recognition domain; made in house
T3 sequence (O00214 187-317 limits assumed): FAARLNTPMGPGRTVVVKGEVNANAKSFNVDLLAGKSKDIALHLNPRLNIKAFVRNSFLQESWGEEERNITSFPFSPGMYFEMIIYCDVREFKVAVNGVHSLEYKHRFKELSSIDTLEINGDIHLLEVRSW
Protocol: as §1, §2, §3, §4, §5, §6

Galectin-8N = molecular target: T4, Galectin-8N (Homo sapiens, UniProt O00214); test: FAC affinity test on galectin-immobilized column; settings: for V − V0 Value: pyridyl-aminated carbohydrate, galectin-8N immobilized 3.6 mg/ml, less than 5 μl = below interaction detection limit
T4 construct: N and C respectively represent N-terminal side carbohydrate-recognition domain and C-terminal side carbohydrate-recognition domain; made in house
T4 sequence (O00214 19-152 limits assumed): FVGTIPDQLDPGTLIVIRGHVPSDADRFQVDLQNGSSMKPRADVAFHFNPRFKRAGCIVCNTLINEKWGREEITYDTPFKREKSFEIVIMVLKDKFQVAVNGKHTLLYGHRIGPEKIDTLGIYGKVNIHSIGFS
Protocol: as §1, §2, §3, §4, §5, §6

Galectin-9C = molecular target: T5, Galectin-9C (Homo sapiens, UniProt O00182); test: FAC affinity test on galectin-immobilized column; settings: for V − V0 Value: pyridyl-aminated carbohydrate, galectin-9C immobilized 3.0 mg/ml, less than 5 μl = below interaction detection limit; for binding to galectin-9C (in words): text statement on the FAC results
T5 construct: N and C respectively represent N-terminal side carbohydrate-recognition domain and C-terminal side carbohydrate-recognition domain; made in house
Protocol: as §1, §2, §3, §4, §5, §6

Galectin-9N = molecular target: T6, Galectin-9N (Homo sapiens, UniProt O00182); test: FAC affinity test on galectin-immobilized column; settings: for V − V0 Value: pyridyl-aminated carbohydrate, galectin-9N immobilized 3.6 mg/ml, less than 5 μl = below interaction detection limit; for binding to galectin-9N (in words): text statement on the FAC results
T6 construct: N and C respectively represent N-terminal side carbohydrate-recognition domain and C-terminal side carbohydrate-recognition domain; made in house
Protocol: as §1, §2, §3, §4, §5, §6

[1] = test system: tested galectin molecules (galectin-1, 3, 8N, 8C, 9N and 9C); test: FAC affinity test, statements on the whole panel of tested galectins; settings: Table 3, whole galectin panel
Description: Using FAC, the present inventors have conducted a comprehensive analysis of the interactions between various galectin molecules (galectin-1, 3, 8N, 8C, 9N and 9C; N and C respectively represent N-terminal side carbohydrate-recognition domain and C-terminal side carbohydrate-recognition domain)-immobilized columns and various fluorescence-labeled glycosaminoglycan molecules. As a result, novel affinity was found by the combination of specific galectin molecules and glycosaminoglycan molecules to thereby accomplish the present invention.
as §3, §4, §6

[2] = text statement on the FAC results

T6 sequence (O00182 17-148 limits assumed): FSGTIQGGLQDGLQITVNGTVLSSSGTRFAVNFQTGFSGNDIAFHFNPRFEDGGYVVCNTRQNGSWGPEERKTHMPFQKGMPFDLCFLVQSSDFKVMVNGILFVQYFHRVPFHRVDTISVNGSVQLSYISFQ
T1 sequence (P09382 whole entry): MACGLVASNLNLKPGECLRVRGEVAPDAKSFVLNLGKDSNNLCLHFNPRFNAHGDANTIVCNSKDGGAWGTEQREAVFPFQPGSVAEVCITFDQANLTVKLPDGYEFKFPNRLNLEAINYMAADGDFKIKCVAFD
T5 sequence (O00182 227-355 limits assumed): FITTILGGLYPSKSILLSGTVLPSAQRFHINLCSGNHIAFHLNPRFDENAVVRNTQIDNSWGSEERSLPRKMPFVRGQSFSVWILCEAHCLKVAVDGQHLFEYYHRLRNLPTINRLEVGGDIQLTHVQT
T2 sequence (P17931 whole entry): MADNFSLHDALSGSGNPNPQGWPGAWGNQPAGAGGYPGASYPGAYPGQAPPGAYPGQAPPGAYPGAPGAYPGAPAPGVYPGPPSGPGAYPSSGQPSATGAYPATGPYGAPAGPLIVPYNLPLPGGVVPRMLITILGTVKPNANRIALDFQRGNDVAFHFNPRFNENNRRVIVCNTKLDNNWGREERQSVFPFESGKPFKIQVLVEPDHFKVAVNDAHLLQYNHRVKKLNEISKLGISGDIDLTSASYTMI

V − V0 Value (Galectin-1): <5.0 µL | V − V0 Value (Galectin-3): 15.6 ± 2.5 µL | V − V0 Value (Galectin-9C): <5.0 µL | V − V0 Value (Galectin-9N): 199.4 µL
Compound: CC(=O)NC1C(OC2C(C(=O)O)OC(OC3C(O)C(CO)OC(OC4C(C(=O)O)OC(OC5C(O)C(CO)OC(OC6C(C(=O)O)OC(OC7C(O)C(CO)OC(OC8C(C(=O)O)OC(OC9C(O)C(CO)OC(O)C9NC(C)=O)C(O)C8O)C7NC(C)=O)C(O)C6O)C5NC(C)=O)C(O)C4O)C3NC(C)=O)C(O)C2O)OC(CO)C(O)C1O (stereo not drawn) [CH9, (GalNAc β1-4 GlcA β1-3)4 GalNAc]

V − V0 Value (Galectin-1): <5.0 µL | V − V0 Value (Galectin-3): <5.0 µL | V − V0 Value (Galectin-9N): 45.6 ± 4.6 µL
Compound: CC(=O)N[C@H]1[C@H](O[C@H]2[C@H](O)[C@@H](O)[C@H](O[C@H]3[C@@H](O)[C@@H](CO)O[C@@H](O[C@H]4[C@H](O)[C@@H](O)[C@H](O[C@H]5[C@@H](O)[C@@H](CO)OC(O)[C@@H]5NC(C)=O)O[C@@H]4C(=O)O)[C@@H]3NC(C)=O)O[C@@H]2C(=O)O)O[C@H](CO)[C@H](O)[C@@H]1O (stereo partly drawn) [CH5, (GalNAc β1-4 GlcA β1-3)2 GalNAc]

V − V0 Value (Galectin-3): 21.4 ± 4.2 µL | V − V0 Value (Galectin-9N): 218.8 µL
Compound: CC(=O)NC1C(OC2C(C(=O)O)OC(OC3C(O)C(CO)OC(OC4C(C(=O)O)OC(OC5C(O)C(CO)OC(OC6C(C(=O)O)OC(OC7C(O)C(CO)OC(OC8C(C(=O)O)OC(OC9C(O)C(CO)OC(OC%10C(C(=O)O)OC(OC%11C(O)C(CO)OC(O)C%11NC(C)=O)C(O)C%10O)C9NC(C)=O)C(O)C8O)C7NC(C)=O)C(O)C6O)C5NC(C)=O)C(O)C4O)C3NC(C)=O)C(O)C2O)OC(CO)C(O)C1O (stereo not drawn) [CH11, (GalNAc β1-4 GlcA β1-3)5 GalNAc]

V − V0 Value (Galectin-1): <5.0 µL | V − V0 Value (Galectin-3): 7.8 ± 1.9 µL | V − V0 Value (Galectin-9C): <5.0 µL | V − V0 Value (Galectin-9N): 116.2 µL
Compound: CC(=O)N[C@H]1[C@H](O[C@H]2[C@H](O)[C@@H](O)[C@H](O[C@H]3[C@@H](O)[C@@H](CO)O[C@@H](O[C@H]4[C@H](O)[C@@H](O)[C@H](O[C@H]5[C@@H](O)[C@@H](CO)O[C@@H](O[C@H]6[C@H](O)[C@@H](O)[C@H](O[C@H]7[C@@H](O)[C@@H](CO)OC(O)[C@@H]7NC(C)=O)O[C@@H]6C(=O)O)[C@@H]5NC(C)=O)O[C@@H]4C(=O)O)[C@@H]3NC(C)=O)O[C@@H]2C(=O)O)O[C@H](CO)[C@H](O)[C@@H]1O[C@@H]1O[C@H](C(=O)O)[C@@H](O)[C@H](O)[C@H]1O (stereo partly drawn) [CH8, GlcA β1-3 (GalNAc β1-4 GlcA β1-3)3 GalNAc]

V − V0 Value (Galectin-3): 16.8 ± 2.1 µL | V − V0 Value (Galectin-9N): 196.0 µL
Compound: CC(=O)NC1C(O)OC(CO)C(O)C1OC1OC(C(=O)O)C(OC2OC(CO)C(O)C(OC3OC(C(=O)O)C(OC4OC(CO)C(O)C(OC5OC(C(=O)O)C(OC6OC(CO)C(O)C(OC7OC(C(=O)O)C(OC8OC(CO)C(O)C(OC9OC(C(=O)O)C(OC%10OC(CO)C(O)C(OC%11OC(C(=O)O)C(O)C(O)C%11O)C%10NC(C)=O)C(O)C9O)C8NC(C)=O)C(O)C7O)C6NC(C)=O)C(O)C5O)C4NC(C)=O)C(O)C3O)C2NC(C)=O)C(O)C1O (stereo not drawn) [CH12, GlcA β1-3 (GalNAc β1-4 GlcA β1-3)5 GalNAc]

V − V0 Value (Galectin-1): <5.0 µL | V − V0 Value (Galectin-3): <5.0 µL | V − V0 Value (Galectin-9N): 49.6 ± 8.2 µL
Compound: CC(=O)N[C@H]1[C@H](O[C@H]2[C@H](O)[C@@H](O)[C@H](O[C@H]3[C@@H](O)[C@@H](CO)OC(O)[C@@H]3NC(C)=O)O[C@@H]2C(=O)O)O[C@H](CO)[C@H](O)[C@@H]1O (stereo partly drawn) [CH3, GalNAc β1-4 GlcA β1-3 GalNAc]

V − V0 Value (Galectin-1): <5.0 µL | V − V0 Value (Galectin-3): 10.7 ± 1.9 µL | V − V0 Value (Galectin-9C): <5.0 µL | V − V0 Value (Galectin-9N): 146.4 µL
Compound: CC(=O)N[C@H]1[C@H](O[C@H]2[C@H](O)[C@@H](O)[C@H](O[C@H]3[C@@H](O)[C@@H](CO)O[C@@H](O[C@H]4[C@H](O)[C@@H](O)[C@H](O[C@H]5[C@@H](O)[C@@H](CO)O[C@@H](O[C@H]6[C@H](O)[C@@H](O)[C@H](O[C@H]7[C@@H](O)[C@@H](CO)OC(O)[C@@H]7NC(C)=O)O[C@@H]6C(=O)O)[C@@H]5NC(C)=O)O[C@@H]4C(=O)O)[C@@H]3NC(C)=O)O[C@@H]2C(=O)O)O[C@H](CO)[C@H](O)[C@@H]1O (stereo partly drawn) [CH7, (GalNAc β1-4 GlcA β1-3)3 GalNAc]

The next lines start with the compound.

Compound: CC(=O)NC1C(O)OC(COS(=O)(=O)[O-])C(OC2OC(COS(=O)(=O)[O-])C(O)C(OC3OC(COS(=O)(=O)[O-])C(OC4OC(COS(=O)(=O)[O-])C(O)C(O)C4O)C(O)C3NC(C)=O)C2O)C1O.[Na+].[Na+].[Na+].[Na+] (stereo not drawn) [L4L4, Gal6S β1-4 GlcNAc6S β1-3 Gal6S β1-4 GlcNAc6S]
V − V0 Value (Galectin-1): <5.0 µL | V − V0 Value (Galectin-3): <5.0 µL | V − V0 Value (Galectin-8C): <5.0 µL | V − V0 Value (Galectin-8N): <5.0 µL | V − V0 Value (Galectin-9C): <5.0 µL | V − V0 Value (Galectin-9N): <5.0 µL | binding to the tested galectin molecules (in words) [1]: did not bind

Compound: cornea type keratan sulfate [KS-I]
V − V0 Value (Galectin-1): 10.3 ± 4.5 µL | binding to galectin-1 (in words) (Galectin-1; [2]): bound; also recorded: showed binding affinity | V − V0 Value (Galectin-3): 21.7 ± 4.3 µL | binding to galectin-3 (in words) (Galectin-3): bound; also recorded: showed binding affinity | V − V0 Value (Galectin-8C): <5.0 µL | V − V0 Value (Galectin-8N): <5.0 µL | binding to galectin-8N (in words) (Galectin-8N; [2]): showed binding affinity | V − V0 Value (Galectin-9C): 12.2 ± 1.0 µL | binding to galectin-9C (in words) (Galectin-9C): bound; also recorded: showed binding affinity | V − V0 Value (Galectin-9N): 105.3 ± 22.6 µL | binding to galectin-9N (in words) (Galectin-9N): bound; also recorded: showed binding affinity

Compound: cartilage type keratan sulfate [KS-II]
V − V0 Value (Galectin-1): <5.0 µL | V − V0 Value (Galectin-3): 10.1 ± 1.1 µL | binding to galectin-3 (in words) (Galectin-3): weaker than their binding with KS-I; also recorded: showed binding affinity | V − V0 Value (Galectin-8C): <5.0 µL | V − V0 Value (Galectin-8N): <5.0 µL | V − V0 Value (Galectin-9C): 6.4 ± 1.0 µL | binding to galectin-9C (in words) (Galectin-9C): weaker than their binding with KS-I; also recorded: showed binding affinity | V − V0 Value (Galectin-9N): 10.4 ± 0.3 µL | binding to galectin-9N (in words) (Galectin-9N): weaker than their binding with KS-I; also recorded: showed binding affinity

Compound: Chondroitin
V − V0 Value (Galectin-1): <5.0 µL | V − V0 Value (Galectin-3): 19.2 ± 2.2 µL | binding to galectin-3 (in words) (Galectin-3): bind | binding to galectin-3 (in words) (Galectin-3; listed as chondroitin): length-dependent binding affinity | V − V0 Value (Galectin-8C): <5.0 µL | V − V0 Value (Galectin-8N): <5.0 µL | V − V0 Value (Galectin-9C): <5.0 µL | V − V0 Value (Galectin-9N): 171.4 ± 19.0 µL | binding to galectin-9N (in words) (Galectin-9N): bind | binding to galectin-9N (in words) (Galectin-9N; listed as chondroitin): particularly strong binding affinity
